According to patent publication US12281081B2, “Herbicidal compounds” (SYNGENTA CROP PROTECTION AG, priority 2019, dated 2025):

What was measured:
Format in all cases: in vivo
Settings in all cases: 250 g/Ha, evaluated after 13 days
[1] = system: Echinochloa crus-galli (ECHCG); test: Pre-emergence herbicidal glasshouse test
Description: (§1) Compounds are applied at 250 g/h. […] NT=not tested.

Avena fatua (AVEFA) [2] = test: Pre-emergence herbicidal glasshouse test
Description: as §1

Setaria faberi (SETFA) [3] = test: Pre-emergence herbicidal glasshouse test
Description: as §1

[4] = system: Alopecurus myosuroides (ALOMY); test: Pre-emergence herbicidal glasshouse test
Description: as §1

Lolium perenne (LOLPE) [5] = test: Pre-emergence herbicidal glasshouse test
Description: as §1

[6] = system: Echinochloa crus-galli (ECHCG); test: Post-emergence herbicidal glasshouse test
Description: as §1

Avena fatua (AVEFA) [7] = test: Post-emergence herbicidal glasshouse test
Description: as §1

Setaria faberi (SETFA) [8] = test: Post-emergence herbicidal glasshouse test
Description: as §1

[9] = system: Alopecurus myosuroides (ALOMY); test: Post-emergence herbicidal glasshouse test
Description: as §1

Lolium perenne (LOLPE) [10] = test: Post-emergence herbicidal glasshouse test
Description: as §1

| Compound | percentage damage caused to the plant, ECHCG [1] | percentage damage caused to the plant, AVEFA (Avena fatua (AVEFA) [2]) | percentage damage caused to the plant, SETFA (Setaria faberi (SETFA) [3]) | percentage damage caused to the plant, ALOMY [4] | percentage damage caused to the plant, LOLPE (Lolium perenne (LOLPE) [5]) | percentage damage caused to the plant, ECHCG [6] | percentage damage caused to the plant, AVEFA (Avena fatua (AVEFA) [7]) | percentage damage caused to the plant, SETFA (Setaria faberi (SETFA) [8]) | percentage damage caused to the plant, ALOMY [9] | percentage damage caused to the plant, LOLPE (Lolium perenne (LOLPE) [10]) |
| --- | --- | --- | --- | --- | --- | --- | --- | --- | --- | --- |
| CC#Cc1cc(C)c(C2C(=O)CC3(CCN(S(=N)(=O)CC)CC3)CC2=O)c(C)c1 (centres unmarked) [Compound A2] | 5 (5=80-100%) | 5 (5=80-100%) | 5 (5=80-100%) | 5 (5=80-100%) | 5 (5=80-100%) | 5 (5=80-100%) | 5 (5=80-100%) | 5 (5=80-100%) | 5 (5=80-100%) | 5 (5=80-100%) |
| CC#Cc1cc(C)c(C2C(=O)CC3(CCN(S(=O)(=O)N(C)C)CC3)CC2=O)c(C)c1 [Compound A4] | 5 (5=80-100%) | 5 (5=80-100%) | 5 (5=80-100%) | 5 (5=80-100%) | 5 (5=80-100%) | 5 (5=80-100%) | 5 (5=80-100%) | 5 (5=80-100%) | 5 (5=80-100%) | 5 (5=80-100%) |
| CC#Cc1cc(C)c(C2C(=O)CC3(CCN(S(=N)(=O)c4ccccn4)CC3)CC2=O)c(C)c1 (centres unmarked) [Compound A5] | 5 (5=80-100%) | 5 (5=80-100%) | 5 (5=80-100%) |  | 5 (5=80-100%) | 5 (5=80-100%) | 5 (5=80-100%) | 5 (5=80-100%) |  | 5 (5=80-100%) |
| CC#Cc1cc(C)c(C2C(=O)CC3(CCN(S(=O)(=O)NCC)CC3)CC2=O)c(C)c1 [Compound A6] | 5 (5=80-100%) | 4 (4=60-79%) | 5 (5=80-100%) | 3 (3=40-59%) | 4 (4=60-79%) | 5 (5=80-100%) | 5 (5=80-100%) | 5 (5=80-100%) | 5 (5=80-100%) | 5 (5=80-100%) |
| CC#Cc1cc(C)c(C2C(=O)CC3(CCN(S(=O)(=O)N4CCOCC4)CC3)CC2=O)c(C)c1 [Compound A7] | 5 (5=80-100%) | 1 (1=0-19%) | 5 (5=80-100%) | 2 (2=20-39%) | 5 (5=80-100%) | 5 (5=80-100%) | 5 (5=80-100%) | 5 (5=80-100%) | 5 (5=80-100%) | 5 (5=80-100%) |
| CC#Cc1cc(C)c(C2C(=O)CC3(CCN(S(=O)(=O)N(C)CC#N)CC3)CC2=O)c(C)c1 [Compound A11] | 5 (5=80-100%) | 2 (2=20-39%) | 5 (5=80-100%) | 1 (1=0-19%) | 4 (4=60-79%) | 5 (5=80-100%) | 5 (5=80-100%) | 5 (5=80-100%) | 5 (5=80-100%) | 5 (5=80-100%) |
| CC#Cc1cc(C)c(C2C(=O)CC3(CCN(S(=O)(=O)N4CCS(=O)(=O)CC4)CC3)CC2=O)c(C)c1 [Compound A12] | 5 (5=80-100%) | 5 (5=80-100%) | 5 (5=80-100%) | 5 (5=80-100%) | 4 (4=60-79%) | 5 (5=80-100%) | 5 (5=80-100%) | 5 (5=80-100%) | 5 (5=80-100%) | 4 (4=60-79%) |
| CC#Cc1cc(C)c(C2C(=O)CC3(CCN(S(=O)(=O)NC(C)=O)CC3)CC2=O)c(C)c1 [Compound A13] | 5 (5=80-100%) | 5 (5=80-100%) | 5 (5=80-100%) | 5 (5=80-100%) | 5 (5=80-100%) | 5 (5=80-100%) | 5 (5=80-100%) | 5 (5=80-100%) | 5 (5=80-100%) | 5 (5=80-100%) |
| CC#Cc1cc(C)c(C2=C(OC(=O)OC)CC3(CCN(S(=N)(=O)CC)CC3)CC2=O)c(C)c1 (centres unmarked) [Compound P1] | 5 (5=80-100%) | 5 (5=80-100%) | 5 (5=80-100%) | 5 (5=80-100%) | 5 (5=80-100%) | 5 (5=80-100%) | 5 (5=80-100%) | 5 (5=80-100%) | 5 (5=80-100%) | 5 (5=80-100%) |
| CC#Cc1cc(C)c(C2=C(OC(=O)OC)CC3(CCN(S(=O)(=O)NC)CC3)CC2=O)c(C)c1 [Compound P2, [9-(2,6-dimethyl-4-prop-1-ynyl-phenyl)-3-(methylsulfamoyl)-10-oxo-3-azaspiro[5.5]undec-8-en-8-yl] methyl carbonate] | 5 (5=80-100%) | 5 (5=80-100%) | 5 (5=80-100%) | 5 (5=80-100%) | 5 (5=80-100%) | 5 (5=80-100%) | 5 (5=80-100%) | 5 (5=80-100%) | 5 (5=80-100%) | 5 (5=80-100%) |
| CC#Cc1cc(C)c(C2=C(OC(=O)OC)CC3(CCN(S(C)(=N)=O)CC3)CC2=O)c(C)c1 (centres unmarked) [Compound P3, [9-(2,6-dimethyl-4-prop-1-ynyl-phenyl)-3-(methylsulfonimidoyl)-10-oxo-3-azaspiro[5.5]undec-8-en-8-yl] methyl carbonate] | 5 (5=80-100%) | 5 (5=80-100%) | 5 (5=80-100%) | 5 (5=80-100%) | 5 (5=80-100%) |  | 5 (5=80-100%) | 5 (5=80-100%) | 5 (5=80-100%) | 5 (5=80-100%) |
